Test systems include IGROV1 ovarian; SK-OV-3 ovarian; T-47D breast; HCC-2998 colon; HS 578T breast; OVCAR-8 ovarian; CAKI-1 renal; COLO 205 colon; SF-295 CNS; 786-0 renal; MDA-N; BT-549 breast; NCI-H226 lung; SF-539 CNS; HCT-116 colon; NCI-H522 lung; RXF 393 renal; SR leukemia; HOP-92 NSCLC.
Experiment in all cases: growth of human tumour cells (NCI), 48 h

SMILES strings stand for the structures.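 Each compound was tested at five concentrations against cells in 96-well plates for 48 hours. TGI denotes the concentration required for complete inhibition of growth.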 Where only a bound is given, the exact number is not on record here.

As for `CCOC(=O)/C(=C\c1c[nH]c2ccccc12)P(=O)(OCC)OCC`, the TGI is over 100 µM in the test with IGROV1 ovarian; 90.4 µM with SK-OV-3 ovarian; over 100 µM in the test on T-47D breast; over 100 µM with HCC-2998 colon; over 100 µM with HS 578T breast; 53.5 µM with OVCAR-8 ovarian. Moreover, the TGI in the test on CAKI-1 renal was over 100 µM; in the test on COLO 205 colon, 44.1 µM; in the test with SF-295 CNS, over 100 µM; in the test on 786-0 renal, 99.6 µM; with MDA-N, over 100 µM; in the test with BT-549 breast, 62.7 µM. In addition, the TGI in the test on NCI-H226 lung was 77.5 µM; in the test on SF-539 CNS it was 43.6 µM; in the test with HCT-116 colon, over 100 µM; in the test with NCI-H522 lung, 89.9 µM; with RXF 393 renal, over 100 µM; in the test with SR leukemia it was 61.1 µM. Further, in the test on HOP-92 NSCLC, the TGI was found to be 77.1 µM.

Regarding `O=C1c2ccccc2C(=O)c2c1oc1cc(O)c(Cl)cc21`, the TGI in the test on IGROV1 ovarian was found to be 31.3 µM; with SK-OV-3 ovarian it was 40 µM; in the test on T-47D breast, 48.6 µM; in the test with HCC-2998 colon it was 14.8 µM; in the test on HS 578T breast it was 15.5 µM; in the test on OVCAR-8 ovarian it was 23.4 µM. In addition, the TGI in the test on CAKI-1 renal was 32.5 µM; in the test with COLO 205 colon, 3.27 µM; with SF-295 CNS, 9.46 µM; in the test on 786-0 renal, 20.9 µM; in the test on MDA-N, 3.35 µM; in the test with BT-549 breast, 15.5 µM. In addition, the TGI with NCI-H226 lung is 34.3 µM; with SF-539 CNS, 16.1 µM; in the test with HCT-116 colon it was 15.1 µM; in the test on NCI-H522 lung, 26.9 µM; in the test on RXF 393 renal, 24.5 µM; with SR leukemia it was over 54.6 µM. The TGI in the test with HOP-92 NSCLC came out at 25.9 µM.

Take `C=CC(C)(C)NC(C(=O)N1CCC[C@H]1c1nc(-c2nc(C(=O)OCC=C(C)C)c(C)o2)c(C)o1)C(C)C` (some centres undefined): the TGI in the test on IGROV1 ovarian, in the test on SK-OV-3 ovarian, with T-47D breast, in the test with HCC-2998 colon, in the test with HS 578T breast and with OVCAR-8 ovarian was over 100 µM each time. In addition, the TGI is 99.8 µM in the test with CAKI-1 renal; over 100 µM in the test with COLO 205 colon; over 74.8 µM in the test with SF-295 CNS; over 100 µM in the test with 786-0 renal; 56.2 µM with MDA-N; over 100 µM with BT-549 breast. The TGI is over 87.7 µM in the test with NCI-H226 lung; over 68.7 µM in the test with SF-539 CNS; over 100 µM in the test on HCT-116 colon; over 100 µM in the test with NCI-H522 lung; over 91.4 µM in the test on RXF 393 renal; over 100 µM with SR leukemia. Also, in the test with HOP-92 NSCLC, the TGI was over 100 µM.

Take `CC/C(Cl)=N\OC(=O)Nc1ccc(F)c(Cl)c1`: the TGI in the test with IGROV1 ovarian was 34.7 µM; in the test with SK-OV-3 ovarian it was 32.5 µM; in the test with T-47D breast, 21.3 µM; in the test on HCC-2998 colon it was 35.3 µM; with HS 578T breast, over 100 µM; in the test with OVCAR-8 ovarian it was 36.8 µM. The TGI is 9.55 µM in the test with CAKI-1 renal; 8.16 µM with COLO 205 colon; 33.1 µM in the test on SF-295 CNS; 18 µM in the test on 786-0 renal; 33.4 µM with MDA-N; 51.3 µM in the test with BT-549 breast. The TGI in the test with NCI-H226 lung is 51.3 µM; in the test with SF-539 CNS, 37.3 µM; in the test on HCT-116 colon, 35.3 µM; in the test on NCI-H522 lung, 3.44 µM; in the test on RXF 393 renal, 34.5 µM; in the test with SR leukemia, 13.1 µM. The TGI in the test on HOP-92 NSCLC was found to be 9.41 µM.

In the case of `Cc1cn(C2CC(O)C(Cn3nncc3Cn3cnc4c(N)ncnc43)O2)c(=O)[nH]c1=O` (centres undefined), the TGI with IGROV1 ovarian, in the test with SK-OV-3 ovarian, in the test on T-47D breast, in the test on HCC-2998 colon, with HS 578T breast and with OVCAR-8 ovarian was over 100 µM each time. Moreover, the TGI in the test with CAKI-1 renal, with COLO 205 colon, in the test on SF-295 CNS, with 786-0 renal, in the test with MDA-N and in the test with BT-549 breast was over 100 µM in each case. The TGI in the test on NCI-H226 lung, in the test with SF-539 CNS, with HCT-116 colon, in the test with NCI-H522 lung, in the test with RXF 393 renal and in the test on SR leukemia was over 100 µM throughout. Moreover, in the test on HOP-92 NSCLC, the TGI is over 100 µM.

As to `CC(C)(C)OC(=O)N(O)CCCn1cnc2c(NC3CC3)ncnc21`, the TGI in the test with IGROV1 ovarian, in the test with SK-OV-3 ovarian, with T-47D breast, in the test on HCC-2998 colon, in the test with HS 578T breast and in the test on OVCAR-8 ovarian was over 100 µM throughout. The TGI in the test on CAKI-1 renal, in the test on COLO 205 colon, in the test with SF-295 CNS, in the test on 786-0 renal, in the test with MDA-N and in the test with BT-549 breast was over 100 µM each time. The TGI with NCI-H226 lung, in the test on SF-539 CNS, in the test on HCT-116 colon, in the test on NCI-H522 lung, in the test on RXF 393 renal and in the test on SR leukemia was over 100 µM in each case. In addition, the TGI with HOP-92 NSCLC was over 100 µM.

For the origin of these results see PubChem BioAssay (NCI).
